Source: patent US9656962B2, “Ring-contracted morphinans and the use thereof” (Purdue Pharma L.P., priority 2013, dated 2017)

What was measured:
Format in all cases: biochemical
[1] = molecular target: T1, μ-opioid receptor (Homo sapiens (Human), UniProt P35372); assay: μ-opioid receptor [35S]GTPγS functional assay, HEK-293 or CHO cells (Table 4); details: for Emax: relative to DAMGO; for EC50: μ GTP
Protocol: (§1) μ-Opioid Receptor Functional Assay Procedures: [^35S]GTPγS functional assays were conducted using freshly thawed μ-receptor membranes prepared in-house from a cell line expressing recombinant μ opioid receptor in a HEK-293, CHO or U-2 OS cell background, or purchased from a commercial source (Perkin Elmer, Shelton, Conn.; or DiscovRx, Fremont, Calif.). Assay reactions were prepared by sequentially adding the following reagents to binding buffer (100 mM NaCl, 10 mM MgCl2, 20 mM HEPES, pH 7.4) on ice (final concentrations indicated): membrane protein (0.026 mg/mL), saponin ([…]), GDP ([…]) and [^35S]GTPγS (0.20 nM; Perkin Elmer, Shelton, Conn.). The prepared membrane solution (190 μl/well) was transferred to 96-shallow well polypropylene plates containing 10 μl of 20× concentrated stock solutions of the agonist [D-Ala^2, N-methyl-Phe^4 Gly-ol^5]-enkephalin (DAMGO) prepared in dimethyl sulfoxide (DMSO). Plates were incubated for 30 min at about 25° C. with shaking Reactions were terminated by rapid filtration onto 96-well Unifilter GF/B filter plates (Perkin Elmer, Shelton, Conn.) using a 96-well tissue harvester (Perkin Elmer, Shelton, Conn.) followed by three filtration washes with 200 μl of ice-cold wash buffer (10 mM NaH2PO4, 10 mM Na2HPO4, pH 7.4). Filter plates were subsequently dried at 50° C. for 2-3 hours. BetaScint scintillation cocktail (Perkin Elmer, Shelton, Conn.) was added (50 μl/well) and plates were counted using a Packard Top-Count for 1 min/well. Data were analyzed using the sigmoidal dose-response curve fitting functions in GraphPad PRISM v. 3.0, or an in-house function for non-linear, sigmoidal dose-response curve-fitting. [^35S]GTPγS functional assays can also be conducted using freshly thawed μ-receptor membranes prepared from a cell line expressing recombinant μ opioid receptor in a CHO-K1 cell background.
(§2) μ GTP Emax (%) is the maximal effect elicited by a compound relative to the effect elicited by DAMGO, a standard μ agonist.
In TABLE 4, activity response of certain Compounds of the Invention to the μ- and κ-opioid receptors was determined as described above for functional assays using HEK-293 or CHO cells.

[2] = molecular target: T1, μ-opioid receptor; assay: μ-opioid receptor [35S]GTPγS functional assay, U-2 OS cells (Table 5); details: for Emax: relative to DAMGO; for EC50: μ GTP
Protocol: as §1, §2

[3] = molecular target: κ-opioid receptor (Homo sapiens (Human), UniProt P41145); assay: κ-opioid receptor [35S]GTPγS functional assay, U-2 OS cells (Table 5); details: for Emax: relative to U69,593; for EC50: κ GTP
Protocol: κ-Opioid Receptor Functional Assay Procedures: Functional [^35S]GTPγS binding assays were conducted as follows. κ opioid receptor membrane solution was prepared by sequentially adding final concentrations of 0.026 μg/μl κ membrane protein (in-house), 10 μg/mL saponin, 3 μM GDP and 0.20 nM [^35S]GTPγS to binding buffer (100 mM NaCl, 10 mM MgCl2, 20 mM HEPES, pH 7.4) on ice. The prepared membrane solution (190 μl/well) was transferred to 96-shallow well polypropylene plates containing 10 μl of 20× concentrated stock solutions of agonist prepared in DMSO. Plates were incubated for 30 min at a temperature of about 25° C. with shaking. Reactions were terminated by rapid filtration onto 96-well Unifilter GF/B filter plates (Perkin Elmer, Shelton, Conn.) using a 96-well tissue harvester (Packard) and followed by three filtration washes with 200 μl ice-cold binding buffer (10 mM NaH2PO4, 10 mM Na2HPO4, pH 7.4). Filter plates were subsequently dried at 50° C. for 2-3 hours. Fifty μl/well scintillation cocktail (Perkin Elmer, Shelton, Conn.) was added and plates were counted in a Packard Top-Count for 1 min/well.
κ GTP Emax (%) is the maximal effect elicited by a compound relative to the effect elicited by U69,593.
The following TABLE 5 provides results on the activity response of certain Compounds of the Invention at the μ- and κ-opioid receptors determined as described above using U-2 OS cells.

SMILES	Emax [1]	EC50 ([1]; bound given in μM)	Emax [2]	EC50 [2]	Emax [3]	EC50 [3]	EC50 [1]
COc1ccc2c(c1)C13CCN(CC4CC4)[C@H](C2)[C@]1(O)C[C@@H](N)C3 (stereo in doubt) [Compound 28, (2S,3aS,4R,9bS)-2-amino-12-(cyclopropylmethyl)-8-methoxy-1,2,3,3a,4,5-hexahydro-4,9b-(epiminoethano)cyclopenta[a]naphthalene-3a-ol]	7.5%	> 20 µM	35.7 ± 5.49%	326 ± 77.9 nM	106.7 ± 0.88%	179 ± 16.4 nM	
COc1ccc2c(c1)[C@]13CCN(CC4CC4)[C@H](C2)[C@]1(O)C[C@@H](C(=O)O)C3 [Compound 15, (2S,3aS,4R,9bS)-12-(cyclopropylmethyl)-3a-hydroxy-8-methoxy-1,2,3,3a,4,5-hexahydro-4,9b-(epiminoethano)-cyclopenta[a]naphthalene-2-carboxylic acid]	7%	> 20 µM	31.6 ± 3.21%	343 ± 110 nM	79.7 ± 5.81%	2900 ± 82.3 nM	
COc1ccc2c(c1)[C@]13CCN(CC4CC4)[C@H](C2)[C@]1(O)C[C@H](C#N)C3 [Compound 25, (2R,3aS,4R,9bS)-12-(cyclopropylmethyl)-3a-hydroxy-8-methoxy-1,2,3,3a,4,5-hexahydro-4,9b-(epiminoethano)-cyclopenta[a]naphthalene-2-carbonitrile]	12 ± 2.08%		54.3 ± 4.1%	228 ± 25.4 nM	107 ± 4.16%	234 ± 28.5 nM	0.616 ± 0.0409 µM
O=C(NCc1ccc(O)cc1)[C@@H]1C[C@]23CCN(CC4CC4)[C@H](Cc4ccc(O)cc42)[C@]3(O)C1 [Compound 39, (2R,3aS,4R,9bS)-12-(cyclopropylmethyl)-3a,8-dihydroxy-N-(4-hydroxybenzyl)-1,2,3,3a,4,5-hexahydro-4,9b-(epimino-ethano)cyclopenta[a]naphthalene-2-carboxamide]	15 ± 1.73%		42 ± 1%	11.1 ± 0.28 nM	91.7 ± 1.86%	1.85 ± 0.097 nM	0.0375 ± 0.0126 µM
O=C(NCc1ccc(O)cc1)[C@H]1C[C@]23CCN(CC4CC4)[C@H](Cc4ccc(O)cc42)[C@]3(O)C1 [Compound 40, (2S,3aS,4R,9bS)-12-(cyclopropylmethyl)-3a,8-dihydroxy-N-(4-hydroxybenzyl)-1,2,3,3a,4,5-hexahydro-4,9b-(epiminoethano)cyclopenta[a]naphthalene-2-carboxamide]	1%	> 20 µM	29.3 ± 1.33%	1.45 ± 0.068 nM	97.7 ± 1.86%	0.73 ± 0.07 nM	
O=C(NCc1ccc(Cl)cc1)[C@@H]1C[C@]23CCN(CC4CC4)[C@H](Cc4ccc(O)cc42)[C@]3(O)C1 [Compound 43, (2R,3aS,4R,9bS)-N-(4-chlorobenzyl)-12-(cyclopropylmethyl)-3a,8-dihydroxy-1,2,3,3a,4,5-hexahydro-4,9b-(epimino-ethano)cyclopenta[a]naphthalene-2-carboxamide]	11 ± 0.82%		41.3 ± 2.03%	4.55 ± 0.14 nM	102 ± 5.9%	0.67 ± 0.02 nM	0.00835 ± 0.0018 µM
O=C(NCc1ccc(Cl)cc1Cl)[C@H]1C[C@]23CCN(CC4CC4)[C@H](Cc4ccc(O)cc42)[C@]3(O)C1 [Compound 45, (2S,3aS,4R,9bS)-12-(cyclopropylmethyl)-N-(2,4-dichlorobenzyl)-3a,8-dihydroxy-1,2,3,3a,4,5-hexahydro-4,9b-(epimino-ethano)cyclopenta[a]naphthalene-2-carboxamide]	43.3 ± 4.84%		87 ± 0.58%	0.14 ± 0.018 nM	100 ± 4.62%	0.018 nM	0.00038 ± 4.4e-05 µM
O=C(NCc1ccc(F)cc1)[C@@H]1C[C@]23CCN(CC4CC4)[C@H](Cc4ccc(O)cc42)[C@]3(O)C1 [Compound 48, (2R,3aS,4R,9bS)-12-(cyclopropylmethyl)-N-(4-fluorobenzyl)-3a,8-dihydroxy-1,2,3,3a,4,5-hexahydro-4,9b-(epimino-ethano)cyclopenta[a]naphthalene-2-carboxamide]	-1%	> 20 µM	40 ± 1.53%	3.12 ± 0.27 nM	106 ± 2.33%	1.46 ± 0.29 nM	
O=C(NCc1cc(F)cc(F)c1)[C@@H]1C[C@]23CCN(CC4CC4)[C@H](Cc4ccc(O)cc42)[C@]3(O)C1 [Compound 49, (2R,3aS,4R,9bS)-12-(cyclopropylmethyl)-N-(3,5-difluorobenzyl)-3a,8-dihydroxy-1,2,3,3a,4,5-hexahydro-4,9b-(epimino-ethano)cyclopenta[a]naphthalene-2-carboxamide]	10.5 ± 0.29%		42.3 ± 1.45%	3.73 ± 0.23 nM	108 ± 4.7%	0.82 ± 0.099 nM	0.00617 ± 0.00198 µM
O=C(NCCc1ccccc1)[C@H]1C[C@]23CCN(CC4CC4)[C@H](Cc4ccc(O)cc42)[C@]3(O)C1 [Compound 51, (2S,3aS,4R,9bS)-12-(cyclopropylmethyl)-3a,8-dihydroxy-N-phenethyl-1,2,3,3a,4,5-hexahydro-4,9b-(epiminoethano)cyclo-penta[a]naphthalene-2-carboxamide]	43 ± 3.06%		87.7 ± 1.2%	0.13 ± 0.015 nM	102 ± 2.31%	0.047 nM	0.00049 ± 4e-05 µM
O=C(NCc1cccnc1)[C@@H]1C[C@]23CCN(CC4CC4)[C@H](Cc4ccc(O)cc42)[C@]3(O)C1 [Compound 89, (2R,3aS,4R,9bS)-12-(cyclopropylmethyl)-3a,8-dihydroxy-N-(pyridin-3-ylmethyl)-1,2,3,3a,4,5-hexahydro-4,9b-(epimino-ethano)cyclopenta[a]naphthalene-2-carboxamide]	4.5%	> 20 µM					
O=C(NCc1ccncc1)[C@@H]1C[C@]23CCN(CC4CC4)[C@H](Cc4ccc(O)cc42)[C@]3(O)C1 [Compound 90, (2R,3aS,4R,9bS)-12-(cyclopropylmethyl)-3a,8-dihydroxy-N-(pyridin-4-ylmethyl)-1,2,3,3a,4,5-hexahydro-4,9b-(epimino-ethano)cyclopenta[a]naphthalene-2-carboxamide]	8.14 ± 1.3%	> 20 µM					
O=C(NCCCN1CCOCC1)[C@H]1C[C@]23CCN(CC4CC4)[C@H](Cc4ccc(O)cc42)[C@]3(O)C1 [Compound 91, (2S,3aS,4R,9bS)-12-(cyclopropylmethyl)-3a,8-dihydroxy-N-(3-morpholinopropyl)-1,2,3,3a,4,5-hexahydro-4,9b-(epimino-ethano)cyclopenta[a]naphthalene-2-carboxamide]	-1%	> 20 µM					
O=C(NCc1cccnc1)[C@H]1C[C@]23CCN(CC4CC4)[C@H](Cc4ccc(O)cc42)[C@]3(O)C1 [Compound 92, (2S,3aS,4R,9bS)-12-(cyclopropylmethyl)-3a,8-dihydroxy-N-(pyridin-3-ylmethyl)-1,2,3,3a,4,5-hexahydro-4,9b-(epimino-ethano)cyclopenta[a]naphthalene-2-carboxamide]	-1%	> 20 µM					
O=C([C@H]1C[C@]23CCN(CC4CC4)[C@H](Cc4ccc(O)cc42)[C@]3(O)C1)N1CCS(=O)(=O)CC1 [Compound 94, ((2S,3aS,4R,9bS)-12-(cyclopropylmethyl)-3a,8-dihydroxy-1,2,3,3a,4,5-hexahydro-4,9b-(epiminoethano)cyclopenta-[a]naphthalen-2-yl)(1,1-dioxido-thiomorpholino)methanone]	10.6 ± 3.41%	> 20 µM					
